For data set [1], the target named is T1, FPTase (Homo sapiens, UniProt P49354+P49356). Briefly: in vitro FTase Inhibition Assay, H-Ras used as substrate for farnesylation. In kind it is biochemical. The following applies: Table I, read-out: IC50 H-Ras*.
The target in data set [2] is T1, FPTase. Description: in vitro FTase Inhibition Assay, K-Ras used as substrate for farnesylation. In kind it is biochemical. The settings on record: Table I.

In US6605628B1, “Method of using 5-(arysulfonyl)-, 5-(arylsulfanyl)-and 5-(arylsulfanyl)thiazolidine-2,4-diones for inhibition of farnesyl-protein transferase” (Wyeth Holdings Corporation, priority 2001, dated 2003) one finds IC50 and melting point data, which are given here for 26 molecules.

One may read the IC50 as the concentration at which inhibition is half-maximal. As usually defined, the melting point is the temperature of the solid-liquid transition. Regarding `O=C1NC(=O)C(CCCC#Cc2cc(Cl)ccc2Cl)(S(=O)(=O)c2ccc(Oc3ccncc3)cc2)S1` (stereo not drawn) [Example 116, 5-[5-(2,5-Dichlorophenyl)pent-4-ynyl]-5-[4-(pyridin-4-yloxy)benzenesulfonyl]thiazolidine-2,4-dione], the melting point is 179 to 180 °C (dec.). The IC50 at FPTase [1] fell in the range of 5 to 10 nM. This molecule also registered a concentration for half-maximal inhibition (IC50) on FPTase [2] of 17 to 40 nM.
The matching figures for `COc1ccc(S(=O)(=O)C2(CCCC#Cc3ccc(Cl)cc3Cl)SC(=O)NC2=O)cc1` (stereo not drawn) [Example 117, 5-[5-(2,4-Dichlorophenyl)pent-4-ynyl]-5-(4-methoxybenzenesulfonyl)-thiazolidine-2,4-dione]: 129 to 133 °C, 20 to 30 nM and 510 to 1000 nM.
In turn, `COc1ccc(S(=O)(=O)C2(CCCC#Cc3cccc([N+](=O)[O-])c3)SC(=O)NC2=O)cc1` (stereo not drawn) [Example 118, 5-(4-Methoxybenzenesulfonyl)-5-[5-(3-nitrophenyl)pent-4-ynyl]thiazolidine-2,4-dione] registered a melting point of 126 to 130 °C. Besides, the IC50 on FPTase [1] stood at 70 nM. On FPTase [2], this molecule returned an IC50 of 1900 nM.
The corresponding values for `O=C1NC(=O)C(CCCC#Cc2cccc([N+](=O)[O-])c2)(S(=O)(=O)c2ccc(Oc3ccccc3)cc2)S1` (stereo not drawn) [Example 119, 5-[5-(3-Nitrophenyl)pent-4-ynyl]-5-(4-phenoxybenzenesulfonyl)thiazolidine-2,4-dione] are 190 to 191 °C, 130 to 140 nM and 1300 to 1700 nM.
The corresponding values for `O=C1NC(=O)C(CCCC#Cc2ccc([N+](=O)[O-])cc2)(S(=O)(=O)c2ccc(I)cc2)S1` (stereo not drawn) [Example 120, 5-(4-Iodobenzenesulfonyl)-5-[5-(4-nitrophenyl)pent-4-ynyl]thiazolidine-2,4-dione] are 205 to 207 °C, 18 to 32 nM and 530 to 1000 nM.
Molecule `COc1ccc(S(=O)(=O)C2(CCCC#Cc3ccc([N+](=O)[O-])cc3)SC(=O)NC2=O)cc1` (stereo not drawn) [Example 121, 5-(4-Methoxybenzenesulfonyl)-5-[5-(4-nitrophenyl)pent-4-ynyl]thiazolidine-2,4-dione] returned a melting point of 156 to 158 °C. Also, the 50% inhibitory concentration (IC50) at FPTase [1] worked out at 120 nM. In addition, the IC50 on FPTase [2] turned out to be 1600 nM.
The matching figures for `Cc1ccc([N+](=O)[O-])cc1C#CCCCC1(S(=O)(=O)c2ccc(Oc3ccccc3)cc2)SC(=O)NC1=O` (stereo not drawn) [Example 124]: 203 to 204 °C, 52 to 80 nM and 910 to 1300 nM.
The matching figures for `Cc1ccc([N+](=O)[O-])cc1C#CCCCC1(S(=O)(=O)c2ccc(I)cc2)SC(=O)NC1=O` (stereo not drawn) [Example 125, 5-(4-Iodobenzenesulfonyl)-5-[5-(2-methyl-5-nitrophenyl)pent-4-ynyl]-thiazolidine-2,4-dione]: 188 to 190 °C, 30 nM and 400 nM.
As to `Cc1ccc([N+](=O)[O-])cc1C#CCCCC1(S(=O)(=O)c2cccc3ccccc23)SC(=O)NC1=O` (stereo not drawn) [Example 126, 5-[5-(2-Methyl-5-nitrophenyl)-pent-4-ynyl]-5-(naphthalene-1-sulfonyl)-thiazolidine-2,4-dione], the melting point lay within 168 to 172 °C. The IC50 at FPTase [1] is 90 nM. The molecule further gave a 50% inhibitory concentration (IC50) against FPTase [2] of 1700 nM.
The corresponding values for `Cc1ccc([N+](=O)[O-])cc1C#CCCCC1(S(=O)(=O)c2ccc3ccccc3c2)SC(=O)NC1=O` (stereo not drawn) [Example 127, 5-[5-(2-Methyl-5-nitrophenyl)pent-4-ynyl]-5-(naphthalene-2-sulfonyl)-thiazolidine-2,4-dione] are 197 to 200 °C, 120 to 140 nM and 1300 to 1500 nM.
The corresponding values for `Cc1cc([N+](=O)[O-])ccc1C#CCCCC1(S(=O)(=O)c2ccc(Oc3ccccc3)cc2)SC(=O)NC1=O` (stereo not drawn) [Example 129, 5-[5-(2-Methyl-4-nitrophenyl)pent-4-ynyl]-5-(4-phenoxybenzenesulfonyl)-thiazolidine-2,4-dione] are 210 to 212 °C, 100 nM and 600 to 790 nM.
The matching figures for `Cc1ccc(C)c(C#CCCCC2(S(=O)(=O)c3ccc(I)cc3)SC(=O)NC2=O)c1` (stereo not drawn) [Example 134, 5-[5-(2,5-Dimethylphenyl)pent-4-ynyl]-5-(4-iodobenzenesulfonyl)-thiazolidine-2,4-dione]: 129 to 130 °C, 14 to 850 nM and 430 to 680 nM.
`COc1ccc(S(=O)(=O)C2(CCCC#Cc3cc(C)ccc3C)SC(=O)NC2=O)cc1` (stereo not drawn) [Example 135, 5-[5-(2,5-Dimethylphenyl)pent-4-ynyl]-5-(4-methoxybenzenesulfonyl)-thiazol idine-2 ,4-dione] showed a melting point of 149 to 150 °C. Also, the 50% inhibitory concentration (IC50) on FPTase [1] lay in the range of 20 to 32 nM. For the same molecule, the IC50 at FPTase [2] was in the range of 1900 to 2100 nM.
As for `COc1ccc(S(=O)(=O)C2(CCCC#Cc3ccc(C)cc3C)SC(=O)NC2=O)cc1` (stereo not drawn) [Example 136, 5-[5-(2,4-Dimethylphenyl)pent-4-ynyl]-5-(4-methoxybenzenesulfonyl)-thiazolidine-2,4-dione], the melting point was 155 to 156 °C. Also, the half-maximal inhibitory concentration (IC50) at FPTase [1] was 43 to 50 nM. Further, the concentration for half-maximal inhibition (IC50) against FPTase [2] fell in the range of 1000 to 1900 nM.
The corresponding values for `Cc1ccc(C#CCCCC2(S(=O)(=O)c3ccc(I)cc3)SC(=O)NC2=O)c(C)c1` (stereo not drawn) [Example 137, 5-[5-(2,4-Dimethylphenyl)pent-4-ynyl]-5-(4-iodobenzenesulfonyl)-thiazolidine-2,4-dione] are 153 to 154 °C, 21 to 400 nM and 37 to 800 nM.
The corresponding values for `COc1ccc(S(=O)(=O)C2(CCCC#Cc3cc(Cl)ccc3C)SC(=O)NC2=O)cc1` (stereo not drawn) [Example 138, 5-[5-(5-Chloro-2-methylphenyl)pent-4-ynyl]-5-(4-methoxybenzene-sulfonyl)-thiazolidine-2,4-dione] are 121 to 122 °C, 23 to 32 nM and 300 to 420 nM.
As to `Cc1ccc(Cl)cc1C#CCCCC1(S(=O)(=O)c2ccc(OC(F)(F)F)cc2)SC(=O)NC1=O` (stereo not drawn) [Example 139, 5-[5-(5-Chloro-2-methylphenyl)pent-4-ynyl]-5-(4-trifluoromethoxybenzene-sulfonyl)-thiazolidine-2,4-dione], the melting point is 196 °C (dec.). For the same molecule, at FPTase [1], the IC50 is 140 to 170 nM. On FPTase [2], the IC50 is 600 to 5000 nM.
The matching figures for `Cc1cc(Cl)ccc1C#CCCCC1(S(=O)(=O)c2ccc(I)cc2)SC(=O)NC1=O` (stereo not drawn) [Example 141, 5-(5-(4-Chloro-2-methylphenyl)-pent-4-ynyl]-5-(4-iodobenzene-sulfonyl)-thiazolidine-2,4-dione]: 93 to 99 °C, 21 to 32 nM and 300 to 340 nM.
The matching figures for `Cc1cc(Br)ccc1C#CCCCC1(S(=O)(=O)c2ccc(I)cc2)SC(=O)NC1=O` (stereo not drawn) [Example 144, 5-[5-(4-Bromo-2-methylphenyl)pent-4-ynyl]-5-(4-iodobenzenesulfonyl)-thiazolidine-2,4-dione]: 146 to 147 °C, 40 to 41 nM and 320 to 550 nM.
The matching figures for `Cc1ccc(NC(=O)OC(C)(C)C)cc1C#CCCCC1(S(=O)(=O)c2ccc(I)cc2)SC(=O)NC1=O` (stereo not drawn) [Example 148, (3-{5-[5-(4-Iodobenzenesulfonyl)-2,4-dioxothiazolidin-5-yl]-pent-1-ynyl}-4-methylphenyl)carbamic Acid tert-Butyl Ester]: 172 to 175 °C, 4.5 to 120 nM and 23 to 31 nM.
For the molecule `COc1ccc(S(=O)(=O)C2(CCCC#Cc3cc(NC(=O)OC(C)(C)C)ccc3C)SC(=O)NC2=O)cc1` (stereo not drawn) [Example 150, (3-{5-[5-(4-Methoxybenzenesulfonyl)-2,4-dioxothiazolidin-5-yl]pent-1-ynyl}-4-methylphenyl)carbamic Acid tert-Butyl Ester], the melting point lay within 116 to 118 °C. Moreover, the IC50 on FPTase [1] lay within 7.4 to 32 nM. The IC50 at FPTase [2] is 16 to 68 nM.
The molecule `COc1ccc(S(=O)(=O)C2(CCCC#Cc3cc(C(=O)NC(C)(C)C)ccc3C)SC(=O)NC2=O)cc1` (stereo not drawn) [Example 152, N-tert-Butyl-3-{5-[5-(4-methoxybenzenesulfonyl)-2,4-dioxothiazol-idin-5-yl]pent-1-ynyl}-4-methyl-benzamide] had a melting point of 205 to 208 °C. At FPTase [1], the IC50 lay within 11 to 16 nM. The molecule further had an IC50 against FPTase [2] of 100 to 230 nM.
The corresponding values for `COc1ccc(S(=O)(=O)C2(CCCC#Cc3ccc(C(F)(F)F)cc3)SC(=O)NC2=O)cc1` (stereo not drawn) [Example 153, 5-(4-Methoxybenzenesulfonyl)-5-[5-(4-trifluoromethylphenyl)pent-4-ynyl]thiazolidine-2,4-dione] are 160 to 163 °C, 170 to 200 nM and 1000 to 6100 nM.
The matching figures for `COc1ccc(S(=O)(=O)C2(CCCC#Cc3ccc(OC(F)(F)F)cc3)SC(=O)NC2=O)cc1` (stereo not drawn) [Example 154, 5-(4-Methoxybenzenesulfonyl)-5-[5-(4-trifluoromethoxyphenyl)pent-4-ynyl]thiazolidine-2,4-dione]: 120 to 123 °C, 70 to 150 nM and 1000 to 2500 nM.
The matching figures for `COC(=O)c1ccc(C)c(C#CCCCC2(S(=O)(=O)c3ccc(OC)cc3)SC(=O)NC2=O)c1` (stereo not drawn) [Example 155, 3-{5-[5-(4-Methoxybenzenesulfonyl)-2,4-dioxo-thiazolidin-5-yl]-pent-1-ynyl}-4-methylbenzoic Acid Methyl Ester]: 119 to 121 °C, 10 to 320 nM and 420 to 440 nM.
Regarding `Cc1ccc(S(=O)(=O)C2(CCCC#Cc3ccc(C(C)(C)C)cc3)SC(=O)NC2=O)cc1` (stereo not drawn) [Example 157, 5-[5-(4-tert-Butylphenyl)pent-4-ynyl]-5-(toluene-4-sulfonyl)thiazolidine-2,4-dione], the melting point lay in the range of 134 to 138 °C. The concentration for half-maximal inhibition (IC50) at FPTase [1] was determined as 270 nM. The same molecule came in with an IC50 against FPTase [2] of 5000 nM.
